Data: US20220289680A1, “METHODS FOR MAKING DIMERIC NAPHTHALIMIDES AND SOLID STATE FORMS OF THE SAME” (Alucent Biomedical, Inc., priority 2018, published 2022)

Columns and labels:
Format in all cases: physicochemical
[1] = Solubility measurements in various solvents (visual inspection of dissolution); conditions: thermodynamic from solid
Method: The mass of a sample of Compound of Formula (I) was determined, and to that sample was added an aliquot of solvent, as shown in Table 5. Visual inspection was used to determine whether dissolution occurred. The solubility of Compound of Formula (I) in each solvent was calculated by dividing the weight of the sample by the total amount of solvent used to dissolve the sample. Table 6 lists the solubility of Compound of Formula (I) in each solvent.

[2] = Post-DVS X-ray powder diffraction analysis (solid form stability); conditions: after DVS cycling 5%-95%-5% RH
Description: (§1) The Rigaku Smart-Lab X-ray diffraction system was configured for reflection Bragg-Brentano geometry using a line source X-ray beam. The x-ray source was a Cu Long Fine Focus tube that was operated at 40 kV and 44 ma. That source provided an incident beam profile (at the sample) that changed from a narrow line at high angles to a broad rectangle at low angles. Beam conditioning slits were used on the X-ray source to ensure that the maximum beam size is less than 10 mm, both along the line and normal to the line. The Rigaku Smart-Lab was operated to give peak widths of 0.1 degrees two-theta or less. The axial divergence of the X-ray beam was controlled by 5.0-degree Soller slits in both the incident and diffracted beam paths.
(§2) Powder samples were prepared in a low-background Si holder using light manual pressure to keep the sample surfaces flat and level with the reference surface of the sample holder. Each sample was analyzed from 2 to 40 degrees two-theta using a continuous scan of 6 degrees two-theta per minute, with an effective step size of 0.02 degrees two-theta.
(§3) DVS analysis was carried out using a TA Instruments Q5000 Dynamic Vapor Sorption analyzer. The instrument was calibrated with standard weights and a sodium bromide standard for humidity. Approximately 10-25 mg of sample was loaded into a metal-coated quartz pan for analysis. The sample was analyzed at 25° C. with a maximum equilibration time of one hour in 10% relative humidity (RH) steps from 5% to 95% RH (adsorption cycle) and from 95% to 5% RH (desorption cycle). The movement from one step to the next occurred either after satisfying the equilibrium criterion of 0.01% weight change or, if the equilibrium criterion was not met, after one hour. The percent weight change values were calculated using Microsoft Excel®.

[3] = Dynamic vapor sorption (DVS) analysis; conditions: 25° C.
Method: as §3

[4] = Post-heating X-ray powder diffraction analysis (solid form stability); conditions: heated at 80° C. for 20 minutes
Description: as §1, §2
A sample of Form 2 was heated at 80° C. for 20 minutes. After cooling, the sample was analyzed using x-ray powder diffraction.

[5] = sample of Example 3 (synthesized by a method similar to Example 4, Form 1)
[6] = slurry-derived samples of Example 2

Work on `NCCOCCOCCNc1ccc2c3c(cccc13)C(=O)N(CCOCCOCCN1C(=O)c3cccc4c(NCCOCCOCCN)ccc(c34)C1=O)C2=O` [Compound of Formula (I), 2,2′-((ethane-1,2-diylbis(oxy))bis(ethane-2,1-diyl))bis(6-((2-(2-(2-aminoethoxy)ethoxy)ethyl)amino)-1H-benzo[de]isoquinoline-1,3(2H)-dione)] yielded a solubility ([1]; 1,1,1,3,3,3-hexafluoro-2-propanol (HFIPA), organic solvent or mixture) of 18000 µg/mL, a solubility ([1]; 1,4-dioxane, organic solvent or mixture) of under 1000 µg/mL and a solubility ([1]; 2,2,2-trifluoroethanol (TFE), organic solvent or mixture) of 18000 µg/mL. It also gave a solubility ([1]; 2-methyl tetrahydrofuran (2-MeTHF), organic solvent or mixture) of under 1000 µg/mL, a solubility ([1]; N,N-dimethylformamide (DMF), organic solvent or mixture, N,N-dinnethylformamide (DMF)) of under 1000 µg/mL and a solubility ([1]; acetone, organic solvent or mixture) of under 1000 µg/mL. It also gave a solubility ([1]; acetone/water (95/5, v/v), organic solvent or mixture) of under 1000 µg/mL, a solubility ([1]; acetonitrile/water (95/5, v/v), organic solvent or mixture) of under 1000 µg/mL and a solubility ([1]; dichloromethane (DCM), organic solvent or mixture) of under 1000 µg/mL. The solubility ([1]; dimethylsulfoxide (DMSO), organic solvent or mixture) was under 1000 µg/mL, the solubility ([1]; ethanol/water (95/5, v/v), organic solvent or mixture) was under 1000 µg/mL and the solubility ([1]; methyl ethyl ketone (MEK), organic solvent or mixture) was under 1000 µg/mL. It also gave a solubility ([1]; organic solvent or mixture, 2-propanol (2-PrOH)) of under 1000 µg/mL, a solubility ([1]; organic solvent or mixture, acetonitrile (CAN)) of under 1000 µg/mL and a solubility ([1]; organic solvent or mixture, diethyl ether (Et2O)) of under 1000 µg/mL. For the same compound, the solubility ([1]; organic solvent or mixture, ethanol (EtOH)) was under 1000 µg/mL, the solubility ([1]; organic solvent or mixture, ethyl acetate (EtOAc)) was under 1000 µg/mL and the solubility ([1]; organic solvent or mixture, methanol (MeOH)) was under 1000 µg/mL. It also gave a solubility ([1]; tetrahydrofuran (THF), organic solvent or mixture) of under 1000 µg/mL, a solubility ([1]; tetrahydrofuran/water (95/5, v/v), organic solvent or mixture) of under 1000 µg/mL and a solubility ([1]; toluene, organic solvent or mixture) of under 1000 µg/mL. The solubility ([1]; water) was under 1000 µg/mL, the “XRPD pattern after DVS cycling relative to the same sample prior to DVS analysis” value [2] was “unchanged” and the “DVS weight gain when cycling from 5% to 95% relative humidity” value (from here on “DVS weight gain … to 95% relative humidity”) [3, 5] was 16.36%. The “DVS weight loss upon drying at 5% relative humidity” value [3, 5] was 0.66% and the “DVS weight loss when cycling from 95% to 5% relative humidity” value (“DVS weight loss … to 5% relative humidity” for short) [3, 5] was 15.51%.
In the case of `NCCOCCOCCNc1ccc2c3c(cccc13)C(=O)N(CCOCCOCCN1C(=O)c3cccc4c(NCCOCCOCCN)ccc(c34)C1=O)C2=O` [Form 2, 2,2′-((ethane-1,2-diylbis(oxy))bis(ethane-2,1-diyl))bis(6-((2-(2-(2-aminoethoxy)ethoxy)ethyl)amino)-1H-benzo[de]isoquinoline-1,3(2H)-dione)], the “XRPD pattern after DVS cycling relative to the same sample prior to DVS analysis” value [2] is reported as “less crystalline”, the “DVS weight gain … to 95% relative humidity” value [3, 6] is reported as 7.2% and the “DVS weight loss upon drying at 5% relative humidity” value [3, 6] is reported as 1.44%. For the same compound, the “DVS weight loss … to 5% relative humidity” value [3, 6] was 14.63% and the “XRPD pattern after heating relative to the same sample before” value [4] was “less crystalline”.
In the case of `NCCOCCOCCNc1ccc2c3c(cccc13)C(=O)N(CCOCCOCCN1C(=O)c3cccc4c(NCCOCCOCCN)ccc(c34)C1=O)C2=O` [Form 1, 2,2′-((ethane-1,2-diylbis(oxy))bis(ethane-2,1-diyl))bis(6-((2-(2-(2-aminoethoxy)ethoxy)ethyl)amino)-1H-benzo[de]isoquinoline-1,3(2H)-dione)], the “XRPD pattern after DVS cycling relative to the same sample prior to DVS analysis” value [2] is reported as “unchanged”, the “DVS weight gain … to 95% relative humidity” value [3, 5] is reported as 16.36% and the “DVS weight loss upon drying at 5% relative humidity” value [3, 5] is reported as 0.66%. For the same compound, the “DVS weight loss … to 5% relative humidity” value [3, 5] was 15.51%, the “DVS weight gain … to 95% relative humidity” value [3, 6] was 13.04% and the “DVS weight loss upon drying at 5% relative humidity” value [3, 6] was 0.6%. The “DVS weight loss … to 5% relative humidity” value [3, 6] was 13.12%.
